According to patent EP0238060B1, “Cephalosporin derivatives, processes for their preparation and antibacterial agents” (Banyu Pharmaceutical Co., Ltd., priority 1986, dated 1987):
Converted amounts (≈) assume the structure as drawn. Read-outs that look alike come from different tables or passages of the source.

Columns and labels:
Experiment in all cases: In vitro antibacterial activity, agar plate dilution method (MIC)
Ps.maltophilia GN 12873 = assay type: cell-based, Pseudomonas maltophilia; details: Stenotrophomonas maltophilia, GN12873; Ps.maltophilia GN 12873 (β-Lactamase-producing strain); Mueller Hinton agar, inoculum 10⁶ CFU/ml, 37°C, 16 hours; read-out: Minimum Inhibitory Concentration (MIC: µg/ml)
Method: (§1) The in vitro antibacterial activities of the compounds of the present invention against various microorganisms, were measured by the following agar plate dilution method. One platinum loopfull of each test microorganism incubated overnight in Mueller Hinton broth, was inoculated to Mueller Hinton agar (inoculum size: l0⁶ CFU/ml). Such culture media containing various antibiotics in various concentrations were prepared. After incubation at 37°C for l6 hours, the minimum inhibitory concentrations (MIC: µg/ml) were measured. As comparative compounds, Cefotaxime, Ceftazidime and the compounds of Reference Examples l to 4 were employed.

E.coli NIHJ JC2 = assay type: cell-based; details: Escherichia coli, NIHJJC2; E.coli NIHJ JC2; Mueller Hinton agar, inoculum 10⁶ CFU/ml, 37°C, 16 hours; read-out: Minimum Inhibitory Concentration (MIC: µg/ml)
Method: as §1

P.vulgaris No. 33 = assay type: cell-based; details: Proteus vulgaris, read-out: Minimum Inhibitory Concentration (MIC: µg/ml)
Method: as §1

S.aureus 209P NIHJ-JC1 = assay type: cell-based; details: Staphylococcus aureus; S.aureus 209P NIHJ-JC1; Mueller Hinton agar, inoculum 10⁶ CFU/ml, 37°C, 16 hours; read-out: Minimum Inhibitory Concentration (MIC: µg/ml)
Method: as §1

Ps.aeruginosa AK 109 = assay type: cell-based; details: Pseudomonas aeruginosa, AK109; Ps.aeruginosa AK 109; Mueller Hinton agar, inoculum 10⁶ CFU/ml, 37°C, 16 hours; read-out: Minimum Inhibitory Concentration (MIC: µg/ml)
Method: as §1

C.freundii GN346/16 = assay type: cell-based; details: Citrobacter freundii; C.freundii GN346/16; Mueller Hinton agar, inoculum 10⁶ CFU/ml, 37°C, 16 hours; read-out: Minimum Inhibitory Concentration (MIC: µg/ml)
Method: as §1

Ps.aeruginosa IFO3445 = assay type: cell-based; details: Pseudomonas aeruginosa; Ps.aeruginosa IFO3445; Mueller Hinton agar, inoculum 10⁶ CFU/ml, 37°C, 16 hours; read-out: Minimum Inhibitory Concentration (MIC: µg/ml)
Method: as §1

S.aureus BB5703 = assay type: cell-based; details: Staphylococcus aureus; S.aureus BB5703; Mueller Hinton agar, inoculum 10⁶ CFU/ml, 37°C, 16 hours; read-out: Minimum Inhibitory Concentration (MIC: µg/ml)
Method: as §1

A.calcoaceticus No. 4 = assay type: cell-based; details: Acinetobacter calcoaceticus; A.calcoaceticus No. 4; Mueller Hinton agar, inoculum 10⁶ CFU/ml, 37°C, 16 hours; read-out: Minimum Inhibitory Concentration (MIC: µg/ml)
Method: as §1

E.coli CSH2 (RK1) = assay type: cell-based; details: Escherichia coli, 16 h, read-out: Minimum Inhibitory Concentration (MIC: µg/ml)
Method: as §1

S.marcescens No. 16-2 = assay type: cell-based; details: Serratia marcescens, NO.162; S.marcescens No. 16-2 (β-Lactamase-producing strain); Mueller Hinton agar, inoculum 10⁶ CFU/ml, 37°C, 16 hours; read-out: Minimum Inhibitory Concentration (MIC: µg/ml)
Method: as §1

Ps.aeruginosa AKR17 = assay type: cell-based; details: Pseudomonas aeruginosa; Ps.aeruginosa AKR17; Mueller Hinton agar, inoculum 10⁶ CFU/ml, 37°C, 16 hours; read-out: Minimum Inhibitory Concentration (MIC: µg/ml)
Method: as §1

P.vulgaris HX-19 = assay type: cell-based; details: Proteus vulgaris, HX19; P.vulgaris HX-19; Mueller Hinton agar, inoculum 10⁶ CFU/ml, 37°C, 16 hours; read-out: Minimum Inhibitory Concentration (MIC: µg/ml)
Method: as §1

E.cloacae Nek 39 = assay type: cell-based; details: Enterobacter cloacae, NEK39; E.cloacae Nek 39 (β-Lactamase-producing strain); Mueller Hinton agar, inoculum 10⁶ CFU/ml, 37°C, 16 hours; read-out: Minimum Inhibitory Concentration (MIC: µg/ml)
Method: as §1

S.aureus JS1 = assay type: cell-based; details: Staphylococcus aureus; S.aureus JS1 (β-Lactamase-producing strain); Mueller Hinton agar, inoculum 10⁶ CFU/ml, 37°C, 16 hours; read-out: Minimum Inhibitory Concentration (MIC: µg/ml)
Method: as §1

E.coli GN5482 = assay type: cell-based; details: Escherichia coli; E.coli GN5482 (β-Lactamase-producing strain); Mueller Hinton agar, inoculum 10⁶ CFU/ml, 37°C, 16 hours; read-out: Minimum Inhibitory Concentration (MIC: µg/ml)
Method: as §1

K.pneumoniae No. 42 = assay type: cell-based; details: Klebsiella pneumoniae; K.pneumoniae No. 42 (β-Lactamase-producing strain); Mueller Hinton agar, inoculum 10⁶ CFU/ml, 37°C, 16 hours; read-out: Minimum Inhibitory Concentration (MIC: µg/ml)
Method: as §1

K.oxytoca GN10650 = assay type: cell-based; details: Klebsiella oxytoca; K.oxytoca GN10650 (β-Lactamase-producing strain); Mueller Hinton agar, inoculum 10⁶ CFU/ml, 37°C, 16 hours; read-out: Minimum Inhibitory Concentration (MIC: µg/ml)
Method: as §1

E.coli CSH(RE45) = assay type: cell-based; details: Escherichia coli, 16 h, read-out: Minimum Inhibitory Concentration (MIC: µg/ml)
Method: as §1

K.pneumoniae PCI-602 = assay type: cell-based; details: Klebsiella pneumoniae, PCI602; K.pneumoniae PCI-602; Mueller Hinton agar, inoculum 10⁶ CFU/ml, 37°C, 16 hours; read-out: Minimum Inhibitory Concentration (MIC: µg/ml)
Method: as §1

M.luteus ATCC9341 = assay type: cell-based; details: Micrococcus luteus; M.luteus ATCC9341; Mueller Hinton agar, inoculum 10⁶ CFU/ml, 37°C, 16 hours; read-out: Minimum Inhibitory Concentration (MIC: µg/ml)
Method: as §1

S.epidermidis IAM12012 = assay type: cell-based; details: Staphylococcus epidermidis; S.epidermidis IAM12012; Mueller Hinton agar, inoculum 10⁶ CFU/ml, 37°C, 16 hours; read-out: Minimum Inhibitory Concentration (MIC: µg/ml)
Method: as §1

S.marcescens IAM 1184 = assay type: cell-based; details: Serratia marcescens, read-out: Minimum Inhibitory Concentration (MIC: µg/ml)
Method: as §1

C.freundii GN346 = assay type: cell-based; details: Citrobacter freundii; C.freundii GN346 (β-Lactamase-producing strain); Mueller Hinton agar, inoculum 10⁶ CFU/ml, 37°C, 16 hours; read-out: Minimum Inhibitory Concentration (MIC: µg/ml)
Method: as §1

E.cloacae 963 = assay type: cell-based; details: read-out: Minimum Inhibitory Concentration (MIC: µg/ml)
Method: as §1

M.morganii GN5407 = assay type: cell-based; details: Morganella morganii; M.morganii GN5407 (β-Lactamase-producing strain); Mueller Hinton agar, inoculum 10⁶ CFU/ml, 37°C, 16 hours; read-out: Minimum Inhibitory Concentration (MIC: µg/ml)
Method: as §1

Ps.cepacia 23 = assay type: cell-based, Pseudomonas cepacia; details: Burkholderia cepacia; Ps.cepacia 23; Mueller Hinton agar, inoculum 10⁶ CFU/ml, 37°C, 16 hours; read-out: Minimum Inhibitory Concentration (MIC: µg/ml)
Method: as §1

SMILES	MIC (Ps.maltophilia GN 12873)	MIC (E.coli NIHJ JC2)	MIC (S.aureus 209P NIHJ-JC1)	MIC (Ps.aeruginosa AK 109)	MIC (C.freundii GN346/16)	MIC (Ps.aeruginosa IFO3445)	MIC (S.aureus BB5703)	MIC (A.calcoaceticus No. 4)	MIC (E.coli CSH2 (RK1))	MIC (S.marcescens No. 16-2)	MIC (Ps.aeruginosa AKR17)	MIC (P.vulgaris HX-19)	MIC (E.cloacae Nek 39)	MIC (S.aureus JS1)	MIC (E.coli GN5482)	MIC (K.pneumoniae No. 42)	MIC (K.oxytoca GN10650)	MIC (E.coli CSH(RE45))	MIC (K.pneumoniae PCI-602)	MIC (M.luteus ATCC9341)	also measured
C=C(O/N=C(\C(=O)NC1C(=O)N2C(C(=O)[O-])=C(C[n+]3ccc4cc(O)c(O)cc4c3)CSC12)c1csc(N)n1)C(=O)O (stereo not drawn) [Ex. 6, 7-[2-(2-aminothiazol-4-yl)-2-(l-carboxy-l-vinyloxyimino)acetamido]-3-(6,7-dihydroxy-2-isoquinolinio)methyl-3-cephem-4-carboxylate]	25 µg/mL (≈ 40.8 µM)	0.1 µg/mL (≈ 0.163 µM)	25 µg/mL (≈ 40.8 µM)	0.39 µg/mL (≈ 0.637 µM)	1.56 µg/mL (≈ 2.55 µM)	1.56 µg/mL (≈ 2.55 µM)	50 µg/mL (≈ 81.6 µM)	0.2 µg/mL (≈ 0.326 µM)	0.0125 µg/mL (≈ 0.0204 µM)	0.1 µg/mL (≈ 0.163 µM)	1.56 µg/mL (≈ 2.55 µM)	< 0.006 µg/mL	0.025 µg/mL (≈ 0.0408 µM)	100 µg/mL (≈ 163 µM)	0.2 µg/mL (≈ 0.326 µM)	0.025 µg/mL (≈ 0.0408 µM)	0.05 µg/mL (≈ 0.0816 µM)	0.025 µg/mL (≈ 0.0408 µM)	< 0.006 µg/mL	6.25 µg/mL (≈ 10.2 µM)	MIC (P.vulgaris No. 33; NO.33, 16 h): 0.0125 µg/mL (≈ 0.0204 µM); MIC (S.epidermidis IAM12012): 12.5 µg/mL (≈ 20.4 µM); MIC (S.marcescens IAM 1184; IAM1184, 16 h): 0.0125 µg/mL (≈ 0.0204 µM); MIC (C.freundii GN346): 50 µg/mL (≈ 81.6 µM); MIC (E.cloacae 963; Enterobacter cloacae, 963, 16 h): 0.0125 µg/mL (≈ 0.0204 µM); MIC (M.morganii GN5407): 0.05 µg/mL (≈ 0.0816 µM); MIC (Ps.cepacia 23): 0.025 µg/mL (≈ 0.0408 µM)
C#CCON=C(C(=O)NC1C(=O)N2C(C(=O)[O-])=C(C[n+]3ccc4cc(O)c(O)cc4c3)CS[C@H]12)c1csc(N)n1 (stereo partly drawn) [Ex. 7, 7-[2-(2-aminothiazol-4-yl)-2-(2-propynyloxyimino)acetamido]-3-(6,7-dihydroxy-2-isoquinolio)methyl-3-cephem-4-carboxylate]	> 100 µg/mL	0.2 µg/mL (≈ 0.344 µM)	1.56 µg/mL (≈ 2.69 µM)	0.78 µg/mL (≈ 1.34 µM)	0.78 µg/mL (≈ 1.34 µM)	0.78 µg/mL (≈ 1.34 µM)	6.25 µg/mL (≈ 10.8 µM)	0.2 µg/mL (≈ 0.344 µM)	< 0.006 µg/mL	1.56 µg/mL (≈ 2.69 µM)	100 µg/mL (≈ 172 µM)	< 0.006 µg/mL	0.2 µg/mL (≈ 0.344 µM)	50 µg/mL (≈ 86.1 µM)	0.78 µg/mL (≈ 1.34 µM)	< 0.006 µg/mL	1.56 µg/mL (≈ 2.69 µM)	0.05 µg/mL (≈ 0.0861 µM)	< 0.006 µg/mL	0.2 µg/mL (≈ 0.344 µM)	MIC (P.vulgaris No. 33; P.vulgaris No. 33 (β-Lactamase-producing strain), Mueller Hinton agar, inoculum 10⁶ CFU/ml, 37°C, 16 hours): 0.05 µg/mL (≈ 0.0861 µM); MIC (S.epidermidis IAM12012): 0.2 µg/mL (≈ 0.344 µM); MIC (S.marcescens IAM 1184; IAM1184, S.marcescens IAM 1184, Mueller Hinton agar, inoculum 10⁶ CFU/ml, 37°C, 16 hours): < 0.006 µg/mL; MIC (C.freundii GN346): 50 µg/mL (≈ 86.1 µM); MIC (E.cloacae 963; Enterobacter cloacae, E.cloacae 963, Mueller Hinton agar, inoculum 10⁶ CFU/ml, 37°C, 16 hours): 0.0125 µg/mL (≈ 0.0215 µM); MIC (M.morganii GN5407): 0.05 µg/mL (≈ 0.0861 µM); MIC (Ps.cepacia 23): 0.1 µg/mL (≈ 0.172 µM)
